Reference: patent US5736557A, “N,N-bis (quinolin-4-yl)-diamine derivatives, their preparation and their use as antimalarials” (Hoffman-La Roche, Inc., priority 1994, dated 1998)
Converted amounts (≈) assume the structure as drawn. Where two headings read alike, the source gives them in different places.

Assays:
[1] = tested on: chloroquine-sensitive strains of the human-pathogenenic Plasmodium falciparum; assay: Growth inhibition of chloroquine-sensitive Plasmodium falciparum strains in vitro; type: cell-based
Description: (§1) Test Method for the Determination of the Activity Against Plasmodium falciparum in vitro
(§2) The preparations are tested on intraerythrocytary stages of Plasmodium falciparum from asynchronous cultures according to the method of Desjardin et al. (Desjardins, R. E. et al: Quantitative assessment of antimalarial activity in vitro by a semiautomated microdilution technique. Antimicrob. Agents Chemother. 16, 710-718, (1979)).
(§3) The culture medium consists of RPMI 1640 with the addition of 25 mM HEPES, 25 mM NaHCO3, 100 μg/ml neomycin and […] (A^+). Human-A^+ erythrocytes are used as the Plasmodium falciparum host cells. The parasites are maintained at 37° C. in an atmosphere of 3% O2, 4% CO2, 9:3% N2 and 95% relative humidity.
(§4) In order to determine the activity, the preparations are dissolved in dimethyl sulphoxide, pre-diluted in the culture medium to a suitable starting concentration and subsequently titrated-out on to microtitre plates in the 2nd stage over 6-7 steps. After the addition of the parasite culture (0.7% parasitemia in 2.5% erythrocyte suspension) the test plates are incubated under the conditions given above for 48 h-72 h. The parasite growth in the different preparation concentrations is determined using [G--^3 H]-hypoxanthin incorporation compared to untreated control cultures on the same test plates. The 50% growth inhibition (IC50) is calculated according to logit regression analysis from the resulting dosage-activity curve.
(§5) The preparations are tested on at least one chloroquine-resistant and one chloroquine-sensitive Plasmodium falciparum strain. Additional sensitive and resistant strains are included for futher characterization.

[2] = tested on: chloroquine-resistant strains of the human-pathogenic Plasmodium falciparum; assay: Growth inhibition of chloroquine-resistant Plasmodium falciparum strains in vitro; type: cell-based; details: for IC50: Plasmodium falciparum; for Resistance index: ratio of average IC50 values for resistant strains and average values for sensitive strains
Description: as §1, §2, §3, §4, §5

Plasmodium berghei = assay: Activity against Plasmodium berghei in vivo in mice; set-up: species or system Plasmodium berghei (strain ANKA) in mice; details: for ED50: read-out: ED50 po
Description: Test Method for the Determination of the Activity Against Plasmodium berghei in vivo
The preparations are tested on mice infected with malaria pathogens (Plasmodium berghei). Male albino mice (IBM:MORO(SPF), FUELLINSDORF) weighing about 25 g are used as the test animals. They are kept in climatized rooms at 21°-22° C. in groups of 5 animals per cage. They receive ad libitum a diet feed with a low PABA content (NAFAG FUTTER .COPYRGT. No. 9009 PAB-45, PABA content 45 mg/kg) and drinking water. On the first day of the test (DO) the test animals are infected with Plasmodium berghei (strain ANKA). For this there is used heparinized blood of a donor mouse with about 30% parasitemia, which is diluted with physiological saline such that it contains 10^8 parasitized erythrocytes per ml. 0.2 ml of this suspension is injected intravenously (i.v.) into the mice to be treated and into the control mice. In untreated control animals the parasitemia normally reaches 30-40% on the third day after the infection (D+3) and the test animals die between days +5 and +7.
The substances to be tested are dissolved or suspended in distilled water or in a mixture of 7% Tween 80, 3% alcohol (96%) and water. Usually, 0.25 ml of this solution or suspension is administered once subcutaneously and perorally to groups of 5 test animals. Treatment is effected 24 hours after the infection. 10 control animals are treated in the same manner with solvent or suspension medium per test.
All substances are tested in a first test in a single dosage of 10 mg/kg. Only those substances which in this test (10 mg/kg) have shown a parasitaemia reduction of 90% are used for the titration. Suitable dilutions of the test substance can be used to obtain an accurate titration of the activity.
48 hours after the treatment (D+3) blood smears are prepared from all animals using blood from tail veins and are stained with giemsa. The average erythrocyte infection rate (parasitemiea in %) in the control groups as well as in the groups which have been treated with the test compounds is determined by counting under a microscope. The difference in the average values of the infection rates of control group (100%) and treated groups is calculated and expressed as a percentage reduction (GI%). The ED50 or ED90 is determined mathematically by means of the JMP programme (nonlinear fit). The ED50 (ED90) in mg/kg is that dose which after single administration reduces the average erythrocyte infection rate by 50% (90%) in comparison to the control group.

[3] = NF54, strain NF54, chloroquine-sensitive, read-out: IC50 growth inhibition
[4] = read-out: IC50 growth inhibition, strain K1, chloroquine-resistant
[5] = po, percentage parasitemia reduction, single peroral dose 10 mg/kg, mice, read-out: GI % at 10 mg/kg po
[6] = sc, percentage parasitemia reduction, single subcutaneous dose 10 mg/kg, mice, read-out: GI % at 10 mg/kg sc
[7] = NF54, read-out: IC50 growth inhibition, strain NF54, chloroquine-sensitive
[8] = read-out: IC50 growth inhibition, strain RFMEF3, chloroquine-sensitive
[9] = read-out: IC50 growth inhibition, strain Ro73, chloroquine-sensitive
[10] = read-out: IC50 growth inhibition, strain 7G8, chloroquine-resistant
[11] = read-out: IC50 growth inhibition, strain Indo, chloroquine-resistant
[12] = read-out: IC50 growth inhibition, strain ItG2F6, chloroquine-resistant
[13] = read-out: IC50 growth inhibition, strain RFCF3, chloroquine-resistant
[14] = read-out: IC50 growth inhibition, strain W2 Mef, chloroquine-resistant
[15] = HB3, strain HB3, chloroquine-sensitive, read-out: IC50 growth inhibition
[16] = strain FCH5C2, chloroquine-sensitive, read-out: IC50 growth inhibition
[17] = strain RFMEF3, chloroquine-sensitive, read-out: IC50 growth inhibition
[18] = strain Ro73, chloroquine-sensitive, read-out: IC50 growth inhibition
[19] = read-out: IC50 growth inhibition, strain W2, chloroquine-resistant
[20] = po, single peroral administration, mice

Structure (SMILES)	IC50 [1, 3] [ng/mL]	IC50 [2, 4] [ng/mL]	inhibition in vivo at 10 mg/kg (Plasmodium berghei; [5]) [%]	inhibition in vivo at 10 mg/kg (Plasmodium berghei; [6]) [%]	IC50 [2, 10] [ng/mL]	IC50 [2, 11] [ng/mL]	IC50 [2, 12] [ng/mL]	IC50 [2, 13] [ng/mL]	IC50 [2, 14] [ng/mL]	Resistance index [2]	IC50 [1, 15] [ng/mL]	IC50 [1, 16] [ng/mL]	IC50 [1, 17] [ng/mL]	IC50 [1, 18] [ng/mL]	IC50 [2, 19] [ng/mL]	further results
Clc1ccc2c(N[C@H]3CCC[C@H](Nc4ccnc5cc(Cl)ccc45)C3)ccnc2c1 (relative stereo) [Example 7, ±-trans-N,N'-Bis-(7-chloroquinolin-4-yl)-cyclohexane-1,3-diamine]	10.7 (≈ 0.0245 µM)	10.5 (≈ 0.024 µM)	97	99	–	–	–	–	–	–	–	–	–	–	–	–
CCN(CC)CCCC(C)Nc1ccnc2cc(Cl)ccc12 (stereo not shown) [Chloroquine, reference compound]	–	114 (≈ 0.356 µM)	–	–	81 (≈ 0.253 µM)	52 (≈ 0.163 µM)	68 (≈ 0.213 µM)	130 (≈ 0.406 µM)	79 (≈ 0.247 µM)	8.7	–	–	–	–	–	IC50 ([1]; HB3, read-out: IC50 growth inhibition, strain HB3, chloroquine-sensitive): 11.3 ng/mL (≈ 0.0353 µM); IC50 [1, 7]: 7.6 ng/mL (≈ 0.0238 µM); IC50 ([1]; read-out: IC50 growth inhibition, strain FCH5C2, chloroquine-sensitive): 12.2 ng/mL (≈ 0.0381 µM); IC50 [1, 8]: 14.2 ng/mL (≈ 0.0444 µM); IC50 [1, 9]: 8 ng/mL (≈ 0.025 µM); ED50 (Plasmodium berghei; po): 2 mg/kg; inhibition in vivo at 10 mg/kg (Plasmodium berghei; po, read-out: GI % at 10 mg/kg po): 99.9%; inhibition in vivo at 10 mg/kg (Plasmodium berghei; sc, read-out: GI % at 10 mg/kg sc): 99.9%
Clc1ccc2c(NCc3ccccc3CNc3ccnc4cc(Cl)ccc34)ccnc2c1 [Example 1, (7-Chloroquinolin-4-yl)-[2-(7-chloroquinolin-4-yl-aminomethyl)-benzyl]-amin]	10.2 (≈ 0.0222 µM)	6.9 (≈ 0.015 µM)	62	97	7 (≈ 0.0152 µM)	6.9 (≈ 0.015 µM)	4.7 (≈ 0.0102 µM)	5.4 (≈ 0.0118 µM)	4.9 (≈ 0.0107 µM)	0.9	7.5 (≈ 0.0163 µM)	6.6 (≈ 0.0144 µM)	6.5 (≈ 0.0141 µM)	3.6 (≈ 0.00784 µM)	5.8 (≈ 0.0126 µM)	–
Clc1ccc2c(NCc3cccc(CNc4ccnc5cc(Cl)ccc45)c3)ccnc2c1 [Example 2, (7-Chloroquinolin-4-yl)-[3-(7-chloroquinolin-4-yl-aminomethyl)-benzyl]-amine]	10.3 (≈ 0.0224 µM)	17 (≈ 0.037 µM)	87	99	13.9 (≈ 0.0303 µM)	15.8 (≈ 0.0344 µM)	19 (≈ 0.0414 µM)	26.3 (≈ 0.0573 µM)	17 (≈ 0.037 µM)	2.8	8.9 (≈ 0.0194 µM)	12.5 (≈ 0.0272 µM)	7.8 (≈ 0.017 µM)	13.3 (≈ 0.029 µM)	100 (≈ 0.218 µM)	–
Clc1ccc2c(NCc3ccc(CNc4ccnc5cc(Cl)ccc45)cc3)ccnc2c1 [Example 3, (7-Chloroquinolin-4-yl)-[4-(7-chloroquinolin-4-yl-aminomethyl)-benzyl]-amine]	9.6 (≈ 0.0209 µM)	9.1 (≈ 0.0198 µM)	99.9	99.9	6.8 (≈ 0.0148 µM)	2.9 (≈ 0.00631 µM)	7.9 (≈ 0.0172 µM)	5.7 (≈ 0.0124 µM)	9.7 (≈ 0.0211 µM)	0.7	4.6 (≈ 0.01 µM)	12.7 (≈ 0.0276 µM)	12.5 (≈ 0.0272 µM)	7.4 (≈ 0.0161 µM)	5 (≈ 0.0109 µM)	ED50 (Plasmodium berghei; [20]): 2.5 mg/kg
Clc1ccc2c(N[C@H]3CC[C@H](Nc4ccnc5cc(Cl)ccc45)CC3)ccnc2c1 [Example 4, ±-trans-N,N'-Bis-(7-chloroquinolin-4-yl)-cyclohexane-1,4-diamine]	7.2 (≈ 0.0165 µM)	11.6 (≈ 0.0265 µM)	73	37	2.8 (≈ 0.0064 µM)	6 (≈ 0.0137 µM)	5.3 (≈ 0.0121 µM)	9.5 (≈ 0.0217 µM)	7 (≈ 0.016 µM)	2.1	3.3 (≈ 0.00755 µM)	3.6 (≈ 0.00823 µM)	3.3 (≈ 0.00755 µM)	1.6 (≈ 0.00366 µM)	13.1 (≈ 0.03 µM)	–
Clc1ccc2c(N[C@H]3CC[C@@H](Nc4ccnc5cc(Cl)ccc45)CC3)ccnc2c1 [Example 5, cis-N,N'-Bis-(7-chloroquinolin-4-yl)-cyclohexane-1,4-diamine]	2.6 (≈ 0.00594 µM)	7.7 (≈ 0.0176 µM)	98	99.9	9 (≈ 0.0206 µM)	4.4 (≈ 0.0101 µM)	6.8 (≈ 0.0155 µM)	5.1 (≈ 0.0117 µM)	6.5 (≈ 0.0149 µM)	2.1	3.2 (≈ 0.00732 µM)	3.9 (≈ 0.00892 µM)	3.4 (≈ 0.00777 µM)	2.3 (≈ 0.00526 µM)	4.8 (≈ 0.011 µM)	ED50 (Plasmodium berghei; [20]): 1.5 mg/kg
Clc1ccc2c(N[C@@H]3CCC[C@H](Nc4ccnc5cc(Cl)ccc45)C3)ccnc2c1 [Example 6, cis-N,N'-Bis-(7-chloroquinolin-4-yl)-cyclohexane-1,3-diamine]	–	4.4 (≈ 0.0101 µM)	98	99.9	3.8 (≈ 0.00869 µM)	3 (≈ 0.00686 µM)	4.1 (≈ 0.00937 µM)	4.2 (≈ 0.0096 µM)	7.6 (≈ 0.0174 µM)	1.0	5.2 (≈ 0.0119 µM)	6.4 (≈ 0.0146 µM)	4.8 (≈ 0.011 µM)	–	4 (≈ 0.00915 µM)	IC50 [1, 7]: 3.8 ng/mL (≈ 0.00869 µM); IC50 [1, 9]: 3 ng/mL (≈ 0.00686 µM); ED50 (Plasmodium berghei; [20]): 1.7 mg/kg
C[C@H]1[C@@H](Nc2ccnc3cc(Cl)ccc23)CCC[C@H]1Nc1ccnc2cc(Cl)ccc12 [Example 8, cis,cis-N,N'-Bis-(7-chloroquinolin-4-yl)-2-methyl-cyclohexane-1,3-diamine]	7.7 (≈ 0.0171 µM)	8.8 (≈ 0.0195 µM)	66	67	9.4 (≈ 0.0208 µM)	6.4 (≈ 0.0142 µM)	6.4 (≈ 0.0142 µM)	4.6 (≈ 0.0102 µM)	9.1 (≈ 0.0202 µM)	1.3	6.1 (≈ 0.0135 µM)	6.1 (≈ 0.0135 µM)	6.3 (≈ 0.014 µM)	1.6 (≈ 0.00354 µM)	5.6 (≈ 0.0124 µM)	–
Clc1ccc2c(NC3CCC(CC4CCC(Nc5ccnc6cc(Cl)ccc56)CC4)CC3)ccnc2c1 (stereo not shown) [Example 12, N,N'-Bis-(7-chloroquinolin-4-yl)-dicyclohexylmethane-4,4'-diamine]	11.6 (≈ 0.0217 µM)	13 (≈ 0.0244 µM)	–	–	17.1 (≈ 0.032 µM)	13.7 (≈ 0.0257 µM)	13.3 (≈ 0.0249 µM)	7.2 (≈ 0.0135 µM)	21.6 (≈ 0.0405 µM)	0.9	26.3 (≈ 0.0493 µM)	19.4 (≈ 0.0364 µM)	–	17.8 (≈ 0.0334 µM)	25 (≈ 0.0469 µM)	IC50 [1, 8]: 13.7 ng/mL (≈ 0.0257 µM)
Clc1ccc2c(NC/C=C/CNc3ccnc4cc(Cl)ccc34)ccnc2c1 [Example 13, N,N'-Bis-(7-chloroquinolin-4-yl)-2-butene-1,4-diamine]	30.8 (≈ 0.0752 µM)	18.1 (≈ 0.0442 µM)	–	–	–	–	–	–	–	–	–	–	–	–	–	–
